This note sets out measurements from ChEMBL document CHEMBL5506069, “A Unique Hybridization Route to Access Hydrazylnaphthalimidols as Novel Structural Scaffolds of Multitargeting Broad-Spectrum Antifungal Candidates” (J Med Chem, 2024).

The subject of assay [1] is Candida albicans. Description: Antifungal activity against Candida albicans assessed as inhibition of fungal growth incubated for 24 hrs by CLSI based microbroth dilution method. Format: functional. (In general: In broth dilution the organism is exposed to a series of concentrations in liquid medium.)
The test system of assay [2] is Candida albicans. As to the kind of experiment: Antifungal activity against Candida albicans ATCC 90023 assessed as inhibition of fungal growth incubated for 24 hrs by CLSI based microbroth dilution method. In kind it is functional.
Assay [3] deals with Aspergillus fumigatus. As to the kind of experiment: Antifungal activity against Aspergillus fumigatus assessed as inhibition of fungal growth incubated for 24 hrs by CLSI based microbroth dilution method. Format: functional.
In another assay the test system is Candida tropicalis. Description: Antifungal activity against Candida tropicalis assessed as inhibition of fungal growth incubated for 24 hrs by CLSI based microbroth dilution method. In kind it is functional.
A further assay relates to Candida parapsilosis. As to the kind of experiment: Antifungal activity against Candida parapsilosis ATCC 22019 assessed as inhibition of fungal growth incubated for 24 hrs by CLSI based microbroth dilution method. The note with it: Lodderomyces parapsilosis. Format: functional.
Assay [4] has as its system Aspergillus fumigatus. Description: Potency index, ratio of fluconazole MIC to test compound MIC for antifungal activity against Aspergillus fumigatus assessed as inhibition of fungal growth incubated for 24 hrs by CLSI based microbroth dilution method. Format: functional.
In a further assay the test system is Cell membrane. Description: Induction of cell membrane potential loss in Candida albicans assessed as change in fluorescence intensity at 4 times MIC measured for 30 mins by DiSC3-5 dye based fluorescence method. Format: subcellular.
The subject of assay [5] is Candida albicans. Description: Antifungal activity against Candida albicans measured after at 8 passages. Format: functional, organism-based.
Assay [6] deals with Candida albicans. As to the kind of experiment: Antibiofilm activity against Candida albicans assessed as inhibition of biofilm formation at 0.5 to 8 microg/ml measured for 24 hrs by crystal violet staining based. The note with it: dose 0.5-8 µg/ml. In kind it is functional.
Assay [7] concerns Candida albicans. Description: Potency index, ratio of fluconazole MIC to test compound MIC for antifungal activity against Candida albicans ATCC 90023 assessed as inhibition of fungal growth incubated for 24 hrs by CLSI based microbroth dilution method. Format: functional.

≈ marks a conversion by molar mass, not a printed value. Calls of active or inactive are those of the source.

Turning to `C[n+]1cccc(/C=N/Nc2ccc3c4c(cccc24)C(=O)N(CCO)C3=O)c1.[I-]`, the MIC (usually the smallest concentration in the dilution series that meets the test's criterion for growth inhibition) is 32 µM with Candida albicans [1]; 16 µM in the assay on Candida albicans [2]; 8 µM with Aspergillus fumigatus [3]; 64 µM with Candida tropicalis; 127 µM with Candida parapsilosis. Besides, in the assay with Aspergillus fumigatus [4], the Ratio was found to be 52.
As to `O=C1c2cccc3c(N/N=C/c4ccc[n+](Cc5ccc([N+](=O)[O-])cc5)c4)ccc(c23)C(=O)N1CCO`, the MIC came out at 56 µM in the assay with Candida albicans [1]; 56 µM with Candida albicans [2]; 111 µM in the assay with Aspergillus fumigatus [3]; 111 µM with Candida tropicalis; 14 µM in the assay on Candida parapsilosis. For the same compound, the result in the assay on Cell membrane was inactive.
As for `OC(Cn1cncn1)(Cn1cncn1)c1ccc(F)cc1F` [FLUCONAZOLE], the MIC was determined as 13 µM (≈ 3.98 µg/mL) in the assay with Candida albicans [1]; 33 µM (≈ 10.1 µg/mL) in the assay on Candida albicans [2]; 418 µM (≈ 128 µg/mL) in the assay with Aspergillus fumigatus [3]; 13 µM (≈ 3.98 µg/mL) with Candida tropicalis; 26 µM (≈ 7.96 µg/mL) in the assay with Candida parapsilosis. In addition, in the assay with Candida albicans [5], the result was inactive. Also, the inhibition entry in the assay on Candida albicans [6] was “inactive”.
As for `CCCCc1nc(Cl)c(/C=N/Nc2ccc3c4c(cccc24)C(=O)N(CCO)C3=O)n1Cc1cccc(Cl)c1`, the MIC came to 57 µM (≈ 32.2 µg/mL) with Candida albicans [1]; 2 µM (≈ 1.13 µg/mL) with Candida albicans [2]; 114 µM (≈ 64.3 µg/mL) with Aspergillus fumigatus [3]; 28 µM (≈ 15.8 µg/mL) in the assay on Candida tropicalis; 57 µM (≈ 32.2 µg/mL) with Candida parapsilosis. Besides, in the assay with Candida albicans [7], the Ratio worked out at 16.
As to `CCCCc1nc(Cl)c(/C=N/Nc2ccc3c4c(cccc24)C(=O)N(CCO)C3=O)n1CC`, the MIC is 274 µM (≈ 128 µg/mL) with Candida albicans [1]; 137 µM (≈ 64.1 µg/mL) in the assay on Candida albicans [2]; 68 µM (≈ 31.8 µg/mL) in the assay with Aspergillus fumigatus [3]; 34 µM (≈ 15.9 µg/mL) in the assay on Candida tropicalis; 548 µM (≈ 256 µg/mL) in the assay on Candida parapsilosis.
As to `CCCCc1nc(Cl)c(/C=N/Nc2ccc3c4c(cccc24)C(=O)N(CCO)C3=O)n1Cc1ccccc1Cl`, the MIC with Candida albicans [1] stood at 57 µM (≈ 32.2 µg/mL); in the assay on Candida albicans [2] it was 4 µM (≈ 2.26 µg/mL); in the assay on Aspergillus fumigatus [3], 227 µM (≈ 128 µg/mL); in the assay with Candida tropicalis it was 57 µM (≈ 32.2 µg/mL); with Candida parapsilosis it was 57 µM (≈ 32.2 µg/mL).
In the case of `O=C1c2cccc3c(N/N=C/c4ccc(O)cc4O)ccc(c23)C(=O)N1CCO`, the MIC with Candida albicans [1] is 327 µM (≈ 128 µg/mL); in the assay with Candida albicans [2], 655 µM (≈ 256 µg/mL); with Aspergillus fumigatus [3] it was 327 µM (≈ 128 µg/mL); in the assay with Candida tropicalis, 655 µM (≈ 256 µg/mL); in the assay on Candida parapsilosis, 327 µM (≈ 128 µg/mL).
As to `O=C1c2cccc3c(N/N=C/c4cc(Cl)ccc4O)ccc(c23)C(=O)N1CCO`, the MIC was determined as 626 µM (≈ 257 µg/mL) in the assay on Candida albicans [1]; 313 µM (≈ 128 µg/mL) in the assay on Candida albicans [2]; 313 µM (≈ 128 µg/mL) with Aspergillus fumigatus [3]; 313 µM (≈ 128 µg/mL) in the assay on Candida tropicalis; 626 µM (≈ 257 µg/mL) in the assay with Candida parapsilosis.
`C/C(Cn1c([N+](=O)[O-])cnc1C)=N\Nc1ccc2c3c(cccc13)C(=O)N(Cc1ccc(F)cc1)C2=O`: the MIC with Candida albicans [1], in the assay on Candida albicans [2], with Aspergillus fumigatus [3], with Candida tropicalis and with Candida parapsilosis was 1020 µM (≈ 512 µg/mL) throughout.
Consider `CCCCCCCCN1C(=O)c2cccc3c(N/N=C(\C)Cn4c([N+](=O)[O-])cnc4C)ccc(c23)C1=O`, for which the MIC with Candida albicans [1], in the assay with Candida albicans [2], in the assay on Aspergillus fumigatus [3], in the assay with Candida tropicalis and in the assay with Candida parapsilosis was 1020 µM (≈ 512 µg/mL) throughout.
For the compound `CCN1C(=O)c2cccc3c(N/N=C(\C)Cn4c([N+](=O)[O-])cnc4C)ccc(c23)C1=O`, the MIC in the assay on Candida albicans [1], in the assay on Candida albicans [2], in the assay with Aspergillus fumigatus [3], with Candida tropicalis and in the assay with Candida parapsilosis was 1220 µM (≈ 512 µg/mL) throughout.
On to `CCCCc1nc(Cl)c(/C=N/Nc2ccc3c4c(cccc24)C(=O)N(CCO)C3=O)n1Cc1ccccc1F`, for which the MIC in the assay with Candida albicans [1] came out at 58 µM (≈ 31.8 µg/mL); with Candida albicans [2] it was 15 µM (≈ 8.22 µg/mL); in the assay with Aspergillus fumigatus [3] it was 58 µM (≈ 31.8 µg/mL); in the assay with Candida tropicalis it was 15 µM (≈ 8.22 µg/mL); in the assay on Candida parapsilosis, 15 µM (≈ 8.22 µg/mL).
`O=C1c2cccc3c(N/N=C/c4cncs4)ccc(c23)C(=O)N1CCO`: the MIC in the assay on Candida albicans [1] is 350 µM (≈ 128 µg/mL); in the assay with Candida albicans [2], 44 µM (≈ 16.1 µg/mL); in the assay with Aspergillus fumigatus [3] it was 175 µM (≈ 64.1 µg/mL); in the assay with Candida tropicalis, 87 µM (≈ 31.9 µg/mL); in the assay with Candida parapsilosis, 22 µM (≈ 8.06 µg/mL).
On the same counts, the results for `O=C1c2cccc3c(N/N=C/c4ncc[nH]4)ccc(c23)C(=O)N1CCO` are 367 µM (≈ 128 µg/mL), 183 µM (≈ 63.9 µg/mL), 183 µM (≈ 63.9 µg/mL), 92 µM (≈ 32.1 µg/mL) and 6 µM (≈ 2.1 µg/mL).
The like results for `C/C(Cn1c([N+](=O)[O-])cnc1C)=N\Nc1ccc2c3c(cccc13)C(=O)N(CCO)C2=O` were, in that order, 1170 µM (≈ 512 µg/mL), 1170 µM (≈ 512 µg/mL), 587 µM (≈ 256 µg/mL), 1170 µM (≈ 512 µg/mL) and 1170 µM (≈ 512 µg/mL).
Consider `C/C(Cn1c([N+](=O)[O-])cnc1C)=N\Nc1ccc2c3c(cccc13)C(=O)N(c1ccc(Cl)cc1Cl)C2=O`, for which the minimal inhibitory concentration (MIC) amounted to 238 µM (≈ 128 µg/mL) in the assay on Candida albicans [1]; 953 µM (≈ 512 µg/mL) in the assay on Candida albicans [2]; 238 µM (≈ 128 µg/mL) in the assay on Aspergillus fumigatus [3]; 238 µM (≈ 128 µg/mL) in the assay with Candida tropicalis; 119 µM (≈ 63.9 µg/mL) in the assay on Candida parapsilosis.
On to `O=C1c2cccc3c(N/N=C/c4ccc(O)c([N+](=O)[O-])c4)ccc(c23)C(=O)N1CCO`, for which the MIC with Candida albicans [1] was found to be 5 µM (≈ 2.1 µg/mL); with Candida albicans [2], 10 µM (≈ 4.2 µg/mL); in the assay on Aspergillus fumigatus [3], 2 µM (≈ 0.841 µg/mL); in the assay with Candida tropicalis, 5 µM (≈ 2.1 µg/mL); with Candida parapsilosis it was 5 µM (≈ 2.1 µg/mL).
With `CCCCN1C(=O)c2cccc3c(N/N=C(\C)Cn4c([N+](=O)[O-])cnc4C)ccc(c23)C1=O`, the MIC in the assay with Candida albicans [1], in the assay on Candida albicans [2], in the assay on Aspergillus fumigatus [3], in the assay with Candida tropicalis and with Candida parapsilosis was 1140 µM (≈ 512 µg/mL) each time.
Consider `O=C1c2cccc3c(N/N=C/c4ccc([N+](=O)[O-])s4)ccc(c23)C(=O)N1CCO`, for which the MIC with Candida albicans [1] came to 39 µM (≈ 16 µg/mL); with Candida albicans [2], 78 µM (≈ 32 µg/mL); in the assay on Aspergillus fumigatus [3] it was 19 µM (≈ 7.8 µg/mL); with Candida tropicalis it was 156 µM (≈ 64 µg/mL); with Candida parapsilosis it was 78 µM (≈ 32 µg/mL).
Consider `O=C1c2cccc3c(N/N=C/c4ccccn4)ccc(c23)C(=O)N1CCO`, for which the MIC was 355 µM (≈ 128 µg/mL) in the assay on Candida albicans [1]; 355 µM (≈ 128 µg/mL) with Candida albicans [2]; 355 µM (≈ 128 µg/mL) in the assay on Aspergillus fumigatus [3]; 711 µM (≈ 256 µg/mL) in the assay on Candida tropicalis; 711 µM (≈ 256 µg/mL) with Candida parapsilosis.
In the case of `CCCCc1nc(Cl)c(/C=N/Nc2ccc3c4c(cccc24)C(=O)N(CCO)C3=O)n1C`, the MIC in the assay with Candida albicans [1] is 71 µM (≈ 32.2 µg/mL); in the assay on Candida albicans [2] it was 71 µM (≈ 32.2 µg/mL); with Aspergillus fumigatus [3], 18 µM (≈ 8.17 µg/mL); in the assay with Candida tropicalis, 141 µM (≈ 64 µg/mL); in the assay on Candida parapsilosis, 565 µM (≈ 256 µg/mL).
On to `CCCCCN1C(=O)c2cccc3c(N/N=C(\C)Cn4c([N+](=O)[O-])cnc4C)ccc(c23)C1=O`, for which the MIC was found to be 1110 µM (≈ 512 µg/mL) in the assay on Candida albicans [1]; 1110 µM (≈ 512 µg/mL) with Candida albicans [2]; 554 µM (≈ 256 µg/mL) in the assay on Aspergillus fumigatus [3]; 1110 µM (≈ 512 µg/mL) with Candida tropicalis; 554 µM (≈ 256 µg/mL) in the assay with Candida parapsilosis.
With `O=C1c2cccc3c(N/N=C/c4cnc(-c5ccccc5)s4)ccc(c23)C(=O)N1CCO`, the MIC was 87 µM (≈ 38.5 µg/mL) with Candida albicans [1]; 22 µM (≈ 9.74 µg/mL) in the assay on Candida albicans [2]; 44 µM (≈ 19.5 µg/mL) in the assay with Aspergillus fumigatus [3]; 87 µM (≈ 38.5 µg/mL) with Candida tropicalis; 5 µM (≈ 2.21 µg/mL) in the assay on Candida parapsilosis.
As for `C[n+]1ccccc1/C=N/Nc1ccc2c3c(cccc13)C(=O)N(CCO)C2=O`, the MIC in the assay on Candida albicans [1] stood at 32 µM; with Candida albicans [2] it was 255 µM; in the assay with Aspergillus fumigatus [3], 127 µM; in the assay on Candida tropicalis it was 32 µM; in the assay with Candida parapsilosis, 64 µM.
For the compound `C/C(Cn1c([N+](=O)[O-])cnc1C)=N\Nc1ccc2c3c(cccc13)C(=O)N(c1ccc(C(F)(F)F)cc1Cl)C2=O`, the MIC in the assay on Candida albicans [1] came to 477 µM (≈ 272 µg/mL); with Candida albicans [2], 954 µM (≈ 545 µg/mL); in the assay on Aspergillus fumigatus [3] it was 477 µM (≈ 272 µg/mL); in the assay on Candida tropicalis, 477 µM (≈ 272 µg/mL); with Candida parapsilosis it was 239 µM (≈ 136 µg/mL).
